Test system: human myeloma cell line MM.1S
Test: SILAC acetylated-lysine peptide profiling, HDAC inhibitor vs DMSO (light/heavy ratio)
Assay type: cell-based
Excerpt: An embodiment of the invention comprises utilizing the SILAC method in order to quantitate changes in protein expression between two or more populations of cells. The SILAC method is a technique based on mass spectrometry that detects differences in protein abundance among samples using non-radioactive isotopic labeling. The SILAC method is known in the art, and described in detail in Ong et al., “Stable Isotope Labeling by Amino Acids in Cell Culture, SILAC, as a Simple and Accurate Approach to Expression Proteomics”, Molecular & Cellular Proteomics, vol. 1, pp. 376-386 (2002), which is incorporated herein by reference in its entirety.
Briefly, the SILAC method involves growing two populations of cells in cell culture. The first population of cells is grown in growth media containing normal amino acids (“normal media”). The second population of cells is grown in media lacking a standard essential amino acid (such as lysine), but is then supplemented with a non-radioactive, isotopically labeled form of that essential amino acid (such as lysine labeled with ^13C atoms, rather than normal ^12C atoms), which is called “heavy media”. When the two populations of cells are each growing in the medium, they incorporate the amino acids into all of their proteins. The growth of cells maintained in the heavy media is no different from that in normal media. All peptides containing the heavy amino acids are heavier than their normal counterparts. The cells from each of the two populations of cells are lysed. The lysates from each of the two cell populations are then combined. The combined cell lysates are then analyzed by mass spectrometry. Pairs of chemically identical peptides of different stable isotope composition can be differentiated in a mass spectrometer due to their difference in mass. The ratio of peak intensities in the mass spectrum for such peptide pairs reflects the abundance ratio for the two proteins.
This example describes SILAC studies that were performed to compare the effects of three different HDAC inhibitors (Compound A, Compound B, and tubastatin A) to a control on a human multiple myeloma cell line. The HDAC inhibitors were also compared amongst themselves to determine differences in their effects.
A human myeloma cell line MM.1S was grown using either ^12C (light) or ^13C (heavy) lysine containing culture medium. The “heavy” cells were treated with DMSO as the control, and the “light” cells were treated with a single HDAC inhibitor at 37° C. for 6 hours. The heavy and light cells were lysed, and the lysates were mixed in 1:1 ratio and digested with the protease trypsin. The acetylated lysine containing peptides (due to the action of the HDAC inhibitor) in the digested peptide pool were captured by a non-specific anti-acetylated lysine antibody cocktail (the antibodies identify both light and heavy acetylated peptides), and subjected to mass spectrometry analysis in order to identify thousands of individual peptides.
Thousands of peptides were identified in pairs (^12C and ^13C) due to their known mass differences. The amino acid sequence and quantitative ratio (Light/Heavy) of a given peptide in two differentially treated cell lysates were then determined and annotated with their possible protein (gene) sources.
As stated above, three HDAC inhibitors (Compound A, Compound B, and Tubastatin A) were used. Thus, the SILAC method was performed three times, with a different HDAC inhibitor compared to a control each time. Accordingly, there are three pairs of quantitative data in the table below, i.e., Compound A:DMSO, Compound B:DMSO, and Tubastatin A:DMSO. A cut-off of 1.30 fold of change (increase or decrease) was then used to determine “changed” or “+” in the table, and any peptides with a fold of change less than 1.3 fold were determined to be “unchanged” or “0” in the table. Those peptides that were not identified were marked as “NA” in the table. […]

With O=C(NO)c1cnc(NC2(c3cccc(F)c3)CCCCC2)nc1 [Compound B, 2-((1-(3-fluorophenyl)cyclohexyl)amino)-N-hydroxypyrimidine-5-carboxamide] as the molecule, how does the “L/H ratio of acetylated peptide PDPAK(ac)SAPAPK(ac)K (SEQ ID NO: 16)” value (HIST1H2BO [6:12], log 2 scale, drug vs DMSO) read?
The value was 0.66.

What about the “light to heavy ratio (L/H ratio) of acetylated peptide SLNLK(ac)HIK (SEQ ID NO: 607)” value (HLA-B associated transcript 1 [188], gene SNORD84, DDX39B, inhibitor:DMSO) of the same molecule?
Its value is 0.00 log 2.

And the “L/H ratio of acetylated peptide K(ac)[…] (SEQ ID NO: 42)” value (HMGB2 [30], log 2 scale, drug vs DMSO)?
Its value is 0.00.

What about the “L/H ratio of acetylated peptide” value (HMVMQK(ac)LLR (SEQ ID NO: 438), Isoform 1 of Poly(U)-binding-splicing factor PUF60 [454], PUF60) of the same molecule?
The value was 0.71 log 2.

And the “L/H ratio of acetylated peptide RGEEGHDPK(ac)EPEQLR (SEQ ID NO: 43)” value (HNRNPA3 [29], log 2 scale, drug vs DMSO)?
The value was 0.00.

What about the “L/H ratio of acetylated peptide […](ac)WQSLK (SEQ ID NO: 44)” value (HNRNPM [83], log 2 scale, drug vs DMSO) of the same molecule?
Its value is 0.00.

And the “L/H ratio of acetylated peptide AAEVLNK(ac)HSLSGRPLK (SEQ ID NO: 3)” value (HNRNPM [134], log 2 scale, drug vs DMSO)?
Its value is −0.74.

And the “L/H ratio of acetylated peptide VK(ac)VLFVR (SEQ ID NO: 45)” value (HNRNPR [341], log 2 scale, drug vs DMSO)?
Its value is 0.00.

What about the “L/H ratio of acetylated peptide […](ac)YSR (SEQ ID NO: 46)” value (HNRNPU [246], log 2 scale, drug vs DMSO) of the same molecule?
The value was 0.00.

And the “L/H ratio of acetylated peptide TTWVTK(ac)HAAENPGK (SEQ ID NO: 47)” value (HNRNPU [497], log 2 scale, drug vs DMSO)?
The value was 0.00.

And the “L/H ratio of acetylated peptide NK(ac)EIFLR (SEQ ID NO: 52)” value (HSP90B1 [97], log 2 scale, drug vs DMSO)?
Its value is 0.00.

And the “L/H ratio of acetylated peptide […](ac)IR (SEQ ID NO: 49)” value (HSP90B1 [114], log 2 scale, drug vs DMSO)?
Its value is 0.00.

What about the “L/H ratio of acetylated peptide ETLQQHK(ac)LLK (SEQ ID NO: 50)” value (HSP90B1 [455], log 2 scale, drug vs DMSO) of the same molecule?
The value was 0.00.

And the “L/H ratio of acetylated peptide IADDK(ac)YNDTFWK (SEQ ID NO: 51)” value (HSP90B1 [479], log 2 scale, drug vs DMSO)?
The value was 0.00.

What about the “L/H ratio of acetylated peptide […](ac)R (SEQ ID NO: 54)” value (HSPA5 [96], log 2 scale, drug vs DMSO) of the same molecule?
The value was 0.00.

And the “L/H ratio of acetylated peptide […](ac)R (SEQ ID NO: 55)” value (HSPA8 [71], log 2 scale, drug vs DMSO)?
The value was 0.00.

What about the “L/H ratio of acetylated peptide” value (HSPEDPEK(ac)YSCFALFVK (SEQ ID NO: 432), Isoform 1 of DNA-dependent protein kinase catalytic subunit [700], PRKDC) of the same molecule?
The value was −0.41 log 2.

And the “L/H ratio of acetylated peptide” value (HTENVAK(ac)[…] (SEQ ID NO: 384), Transcriptional repressor CTCF [436], CTCF)?
The value was −0.66 log 2.

And the “light to heavy ratio (L/H ratio) of acetylated peptide […](ac)R (SEQ ID NO: 267)” value (Heat shock 70 kDa protein 1A/1B [71], HSPA1B, HSPA1A, drug:DMSO)?
The value was 0.00 log 2.

What about the “light to heavy ratio (L/H ratio), log 2 scale, acetylated peptide TEMDWVLK(ac)[…] (SEQ ID NO: 797)” value (Heterogeneous nuclear ribonucleoprotein F [98], gene HNRNPF, drug:DMSO) of the same molecule?
The value was 0.00.

And the “light to heavy ratio (L/H ratio) of acetylated peptide YEK(ac)DIAAYR (SEQ ID NO: 595)” value (High mobility group protein B2 [157], gene HMGB2, inhibitor:DMSO)?
The value was 0.00 log 2.

What about the “light to heavy ratio (L/H ratio), log 2 scale, acetylated peptide K(ac)AINK(ac)AQK (SEQ ID NO: 793)” value (Histone H2B type 1-M [17:21], gene HIST1H2BM, drug:DMSO) of the same molecule?
Its value is 0.00.

What about the “light to heavy ratio (L/H ratio) of acetylated peptide PEPAK(ac)SAPAPK(ac)K (SEQ ID NO: 309)” value (Histone H2B type 2-E [6:12], HIST2H2BE, drug:DMSO) of the same molecule?
Its value is 0.00 log 2.

What about the “light to heavy ratio (L/H ratio) of acetylated peptide K(ac)STGGK(ac)APR (SEQ ID NO: 310)” value (Histone H3.2 [10:15], HIST2H3D, HIST2H3A, HIST2H3C, drug:DMSO) of the same molecule?
Its value is 0.00 log 2.

And the “light to heavy ratio (L/H ratio) of acetylated peptide GK(ac)GGK(ac)GLGK (SEQ ID NO: 311)” value (Histone H4 [6:9], HIST2H4B, HIST1H4C and other H4 genes, drug:DMSO)?
The value was 0.00 log 2.

What about the “light to heavy ratio (L/H ratio) of acetylated peptide GLGK(ac)GGAK(ac)R (SEQ ID NO: 312)” value (Histone H4 [13:17], HIST2H4B, HIST1H4C and other H4 genes, drug:DMSO) of the same molecule?
The value was 0.00 log 2.

What about the “light to heavy ratio (L/H ratio) of acetylated peptide GLGK(ac)GGAKR (SEQ ID NO: 313)” value (Histone H4 [13], HIST2H4B, HIST1H4C and other H4 genes, drug:DMSO) of the same molecule?
The value was 0.00 log 2.

What about the “light to heavy ratio (L/H ratio) of acetylated peptide DGLQNEK(ac)NIVSTPVK (SEQ ID NO: 268)” value (Hydroxymethylglutaryl-CoA lyase mitochondrial [48], HMGCL, drug:DMSO) of the same molecule?
Its value is 0.00 log 2.

What about the “light to heavy ratio (L/H ratio) of acetylated peptide K(ac)[…] (SEQ ID NO: 594)” value (Hydroxymethylglutaryl-CoA lyase mitochondrial [137], gene HMGCL, inhibitor:DMSO) of the same molecule?
Its value is 0.00 log 2.

And the “L/H ratio of acetylated peptide” value (IAVEAQNK(ac)YER (SEQ ID NO: 457), Nucleoprotein TPR [1081], TPR)?
Its value is 0.63 log 2.

And the “L/H ratio of acetylated peptide” value (IDYGEYMDK(ac)NNVR (SEQ ID NO: 454), Single-stranded DNA-binding protein mitochondrial [122], SSBP1)?
The value was −0.52 log 2.

And the “light to heavy ratio (L/H ratio) of acetylated peptide, log 2 scale” value (IGK(ac)[…] (SEQ ID NO: 236), Thioredoxin domain-containing protein 5 [244], TXNDC5, MUTED, MUTED-TXNDC5)?
Its value is 0.00.

Source: patent publication US20140357512A1, “HISTONE DEACETYLASE (HDAC) BIOMARKERS IN MULTIPLE MYELOMA” (priority 2013, published 2014)
